Counter-ions that a name gives are not always drawn.
Experiments:
human V1a receptor = target: T1, human V1a receptor (Homo sapiens, UniProt P37288); experiment: Cellular in vitro assay for determining vasopressin receptor activity (V1a, aequorin luminescence); assay type: cell-based; details: for IC50: CHO cell line transfected with the human V1a receptor, [Arg8]-vasopressin at EC50 concentration, read-out: IC50 hV1a; for ratio IC50 hV2/hV1a: selectivity ratio of IC50 hV2 to IC50 hV1a
T1 construct: expressed in transfected cells; host or cells: CHO K1 (ATCC), also stably transfected with a modified aequorin
Protocol: (§1) B-1. Cellular In Vitro Assay for Determining Vasopressin Receptor Activity
(§2) The identification of agonists and antagonists of the V1a and V2 vasopressin receptors from humans, rats and dogs as well as the quantification of the activity of the compounds of the invention is carried out using recombinant cell lines. These cell lines originally derive from a hamster's ovary epithelial cell (Chinese Hamster Ovary, CHO K1, ATCC: American Type Culture Collection, Manassas, Va. 20108, USA). The test cell lines constitutively express the human, rat or dog V1a or V2 receptors. In case of the Gαq-coupled V1a receptors, cells are also stably transfected with a modified form of the calcium-sensitive photoproteins aequorin (human and rat V1a) or obelin (dog V1a), which, after reconstitution with the cofactor coelenterazine, emit light when there are increases in free calcium concentrations [Rizzuto R, Simpson A W, Brini M, Pozzan T, Nature 358, 325-327 (1992); Illarionov B A, Bondar V S, Illarionova V A, Vysotski E S, Gene 153 (2), 273-274 (1995)]. The resulting vasopressin receptor cells react to stimulation of the recombinantly expressed V1a receptors by intracellular release of calcium ions, which can be quantified by the resulting photoprotein luminescence. The Gs-coupled V2 receptors are stably transfected into cell lines expressing the gene for firefly luciferase under control of a CRE-responsible promoter. Activation of V2 receptors induces the activation of the CRE-responsive promoter via cAMP increase, thereby inducing the expression of firefly luciferase. The light emitted by photoproteins of V1a cell lines as well as the light emitted by firefly luciferase of V2 cell lines corresponds to the activation or inhibition of the respective vasopressin receptor. The bioluminescence of the cell lines is detected using a suitable luminometer [Milligan G, Marshall F, Rees S, Trends in Pharmacological Sciences 17, 235-237 (1996)].
Vasopressin V1a receptor cell lines:
On the day before the assay, the cells are plated out in culture medium (DMEM/F12, 2% FCS, 2 mM glutamine, 10 mM HEPES, 5 μg/ml coelenterazine) in 384-well microtiter plates and kept in a cell incubator (96% humidity, 5% v/v CO2, 37° C.). On the day of the assay, test compounds in various concentrations are placed for 10 minutes in the wells of the microtiter plate before the agonist [Arg^8]-vasopressin at EC50 concentration is added. The resulting light signal is measured immediately in a luminometer.
(§3) Table 1A below lists individual IC50 values for the compounds of the invention (including racemic mixtures as well as separated enantiomers) that were obtained from cell lines transfected with the human V1a or V2 receptor: […]

human V2 receptor = target: T2, human V2 receptor (Homo sapiens, UniProt P30518); experiment: Cellular in vitro assay for determining vasopressin receptor activity (V2, CRE-luciferase); assay type: cell-based; details: CHO cell line transfected with the human V2 receptor; [Arg8]-vasopressin at EC50 concentration; read-out: IC50 hV2
T2 construct: expressed in transfected cells; host or cells: CHO K1 (ATCC) expressing firefly luciferase under a CRE-responsive promoter
Protocol: as §1, §2
Vasopressin V2 receptor cell lines:
On the day before the assay, the cells are plated out in culture medium (DMEM/F12, 2% FCS, 2 mM glutamine, 10 mM HEPES) in 384-well microtiter plates and kept in a cell incubator (96% humidity, 5% v/v CO2, 37° C.). On the day of the assay, test compounds in various concentrations and the agonist [Arg^8]-vasopressin at EC50 concentration are added together to the wells, and plates are incubated for 3 hours in a cell incubator. Upon addition of the cell lysis reagent Triton™ and the substrate luciferin, luminescence of firefly luciferase is measured in a luminometer.
as §3

T1 sequence (P37288 whole entry): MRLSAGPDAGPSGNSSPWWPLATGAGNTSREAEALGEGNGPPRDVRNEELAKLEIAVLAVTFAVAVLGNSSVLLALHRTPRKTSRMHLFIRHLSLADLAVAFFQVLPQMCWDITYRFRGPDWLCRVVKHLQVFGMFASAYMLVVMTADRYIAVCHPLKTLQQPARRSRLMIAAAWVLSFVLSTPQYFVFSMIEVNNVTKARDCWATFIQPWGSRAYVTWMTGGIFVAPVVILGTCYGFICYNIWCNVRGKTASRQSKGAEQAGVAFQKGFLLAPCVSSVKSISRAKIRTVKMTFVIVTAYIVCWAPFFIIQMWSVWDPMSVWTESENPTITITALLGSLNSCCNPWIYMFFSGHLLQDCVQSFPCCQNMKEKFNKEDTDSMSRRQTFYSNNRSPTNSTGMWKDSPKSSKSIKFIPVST
T2 sequence (P30518 whole entry): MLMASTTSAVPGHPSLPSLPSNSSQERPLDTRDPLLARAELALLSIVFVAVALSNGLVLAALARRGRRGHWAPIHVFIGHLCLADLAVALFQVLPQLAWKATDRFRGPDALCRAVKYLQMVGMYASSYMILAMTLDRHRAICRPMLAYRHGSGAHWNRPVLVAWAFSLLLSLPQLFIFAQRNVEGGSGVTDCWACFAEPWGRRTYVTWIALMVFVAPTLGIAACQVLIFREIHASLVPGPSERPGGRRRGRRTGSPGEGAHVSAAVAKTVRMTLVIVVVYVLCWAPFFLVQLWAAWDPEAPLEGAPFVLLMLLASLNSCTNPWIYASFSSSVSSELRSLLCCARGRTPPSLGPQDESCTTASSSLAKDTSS

SMILES	IC50 (human V1a receptor) [nM]	ratio IC50 hV2/hV1a (human V1a receptor)	IC50 (human V2 receptor) [nM]
NC(=O)OCc1nc(Cn2nc(-c3ccc(Cl)cc3)n(C[C@H](O)C(F)(F)F)c2=O)nn1-c1ccccc1Cl [Example 28, [1-(2-Chlorophenyl)-3-({3-(4-chlorophenyl)-5-oxo-4-[(2S)-3,3,3-trifluoro-2-hydroxypropyl]-4,5-dihydro-1H-1,2,4-triazol-1-yl}methyl)-1H-1,2,4-triazol-5-yl]methyl Carbamate]	0.43	6.0	2.57
CC(NC(=O)C(F)(F)F)c1nc(Cn2nc(-c3ccc(Cl)cc3)n(C[C@H](O)C(F)(F)F)c2=O)nn1-c1ccccc1Cl (single isomer, unassigned) [Example 75]	4.2	14.1	59
C[C@H](N)c1nc(Cn2nc(-c3ccc(Cl)cc3)n(C[C@H](O)C(F)(F)F)c2=O)nn1-c1cccc(Cl)c1 [Example 57, 2-({5-[(1S)-1-Aminoethyl]-1-(3-chlorophenyl)-1H-1,2,4-triazol-3-yl}methyl)-5-(4-chlorophenyl)-4-[(2S)-3,3,3-trifluoro-2-hydroxypropyl]-2,4-dihydro-3H-1,2,4-triazol-3-one hydrochloride]	13.1	0.1	1.28
CC(=O)NC1(c2nc(Cn3nc(-c4ccc(Cl)cc4)n(C[C@H](O)C(F)(F)F)c3=O)nn2-c2ccccc2Cl)CC1 [Example 77, N-{1-[1-(2-Chlorophenyl)-3-({3-(4-chlorophenyl)-5-oxo-4-[(2S)-3,3,3-trifluoro-2-hydroxypropyl]-4,5-dihydro-1H-1,2,4-triazol-1-yl}methyl)-1H-1,2,4-triazol-5-yl]cyclopropyl}acetamide]	6.5	52.3	340
Cc1ccccc1-n1nc(Cn2nc(-c3ccc(Cl)cc3)n(C[C@H](O)C(F)(F)F)c2=O)nc1COC(N)=O [Example 37, [3-({3-(4-Chlorophenyl)-5-oxo-4-[(2S)-3,3,3-trifluoro-2-hydroxypropyl]-4,5-dihydro-1H-1,2,4-triazol-1-yl}methyl)-1-(2-methylphenyl)-1H-1,2,4-triazol-5-yl]methyl Carbamate]	0.77	8.6	6.62
CN1C(=O)CCC1c1nc(Cn2nc(-c3ccc(Cl)cc3)n(C[C@H](O)C(F)(F)F)c2=O)nn1-c1ccccc1Cl (mixture of isomers) [Example 70, 5-(4-Chlorophenyl)-2-{[1-(2-chlorophenyl)-5-(1-methyl-5-oxopyrrolidin-2-yl)-1H-1,2,4-triazol-3-yl]methyl}-4-[(2S)-3,3,3-trifluoro-2-hydroxypropyl]-2,4-dihydro-3H-1,2,4-triazol-3-one]	0.81	8.7	7.03
C[C@@H](OC(N)=O)c1nc(Cn2nc(-c3ccc(Cl)cc3)n(C[C@H](O)C(F)(F)F)c2=O)nn1-c1ccc(Cl)cn1 [Example 17, (1R)-1-[3-({3-(4-Chlorophenyl)-5-oxo-4-[(2S)-3,3,3-trifluoro-2-hydroxypropyl]-4,5-dihydro-1H-1,2,4-triazol-1-yl}methyl)-1-(5-chloropyridin-2-yl)-1H-1,2,4-triazol-5-yl]ethyl Carbamate]	557	0.3	150
COc1ccccc1-n1nc(Cn2nc(-c3ccc(Cl)cc3)n(C[C@H](O)C(F)(F)F)c2=O)nc1C(C)OC(N)=O (single isomer, unassigned) [Example 39]	1.1	1.6	1.76
CC(N)c1nc(Cn2nc(-c3ccc(Cl)cc3)n(C[C@H](O)C(F)(F)F)c2=O)nn1-c1ccccc1Cl (single isomer, unassigned) [Example 61]	0.45	6.3	2.83
COCCNC(=O)OCc1nc(Cn2nc(-c3ccc(Cl)cc3)n(C[C@H](O)C(F)(F)F)c2=O)nn1-c1ccccc1C(F)(F)F [Example 51, {3-({3-(4-Chlorophenyl)-5-oxo-4-[(2S)-3,3,3-trifluoro-2-hydroxypropyl]-4,5-dihydro-1H-1,2,4-triazol-1-yl}methyl)-1-[2-(trifluoromethyl)phenyl]-1H-1,2,4-triazol-5-yl}methyl (2-methoxyethyl)-carbamate]	3.9	7.6	29.7

Continued, values first:

IC50 (human V1a receptor) [nM]	ratio IC50 hV2/hV1a (human V1a receptor)	IC50 (human V2 receptor) [nM]	SMILES
0.77	4.9	3.8	O=C1CC[C@H](c2nc(Cn3nc(-c4ccc(Cl)cc4)n(C[C@H](O)C(F)(F)F)c3=O)nn2-c2ccccc2Cl)N1 [Example 101, 5-(4-Chlorophenyl)-2-({1-(2-chlorophenyl)-5-[(2R)-5-oxopyrrolidin-2-yl]-1H-1,2,4-triazol-3-yl}methyl)-4-[(2S)-3,3,3-trifluoro-2-hydroxypropyl]-2,4-dihydro-3H-1,2,4-triazol-3-one]
4.75	9.4	44.5	CC(C)(C)OCC(NS(C)(=O)=O)c1nc(Cn2nc(-c3ccc(Cl)cc3)n(C[C@H](O)C(F)(F)F)c2=O)nn1-c1ccccc1Cl (single isomer, unassigned) [Example 84]
8.4	25.0	210	O=C1NC(c2nc(Cn3nc(-c4ccc(Cl)cc4)n(C[C@H](O)C(F)(F)F)c3=O)nn2-c2ncccc2Cl)CO1 (mixture of isomers) [Example 112, 5-(4-Chlorophenyl)-2-({1-(3-chloropyridin-2-yl)-5-[2-oxo-1,3-oxazolidin-4-yl]-1H-1,2,4-triazol-3-yl}methyl)-4-[(2S)-3,3,3-trifluoro-2-hydroxypropyl]-2,4-dihydro-3H-1,2,4-triazol-3-one]
0.78	20.0	15.5	CC(=O)NC(CO)c1nc(Cn2nc(-c3ccc(Cl)cc3)n(C[C@H](O)C(F)(F)F)c2=O)nn1-c1ccccc1Cl (single isomer, unassigned) [Example 93]
13.5	17.8	240	CC(=O)NC(C)c1nc(Cn2nc(-c3ccc(Cl)cc3)n(C[C@H](O)C(F)(F)F)c2=O)nn1-c1ncccc1Cl (mixture of isomers) [Example 107, N-{1-[3-({3-(4-Chlorophenyl)-5-oxo-4-[(2S)-3,3,3-trifluoro-2-hydroxypropyl]-4,5-dihydro-1H-1,2,4-triazol-1-yl}methyl)-1-(3-chloropyridin-2-yl)-1H-1,2,4-triazol-5-yl]ethyl}acetamide]
1.65	11.2	18.5	CC(N)c1nc(Cn2nc(-c3ccc(Cl)cc3)n(C[C@H](O)C(F)(F)F)c2=O)nn1-c1ncccc1Cl (mixture of isomers) [Example 106, 2-({5-[1-Aminoethyl]-1-(3-chloropyridin-2-yl)-1H-1,2,4-triazol-3-yl}methyl)-5-(4-chlorophenyl)-4-[(2S)-3,3,3-trifluoro-2-hydroxypropyl]-2,4-dihydro-3H-1,2,4-triazol-3-one]
0.35	6.4	2.25	CS(=O)(=O)NC(CO)c1nc(Cn2nc(-c3ccc(Cl)cc3)n(C[C@H](O)C(F)(F)F)c2=O)nn1-c1ccccc1Cl (mixture of isomers) [Example 85, N-{1-[1-(2-Chlorophenyl)-3-({3-(4-chlorophenyl)-5-oxo-4-[(2S)-3,3,3-trifluoro-2-hydroxypropyl]-4,5-dihydro-1H-1,2,4-triazol-1-yl}methyl)-1H-1,2,4-triazol-5-yl]-2-hydroxyethyl}-methanesulfonamide]
